Laboratory results published in PubChem BioAssay (NCI).
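Following 48 hours of exposure in 96-well plates, responses at five concentrations were used to interpolate endpoints linearly. GI50 = concentration required for 50% inhibition of growth. The concentration for full growth arrest is given as TGI.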

Tests used:
Assay in all cases: growth of human tumour cells (NCI), 48 h
DU-145 prostate = system: DU-145 prostate
CAKI-1 renal = system: CAKI-1 renal
MOLT-4 leukemia = system: MOLT-4 leukemia
HT29 colon = system: HT29 colon
EKVX NSCLC = system: EKVX NSCLC
MALME-3M melanoma = system: MALME-3M melanoma
786-0 renal = system: 786-0 renal
A549 NSCLC = system: A549 NSCLC
NCI/ADR-RES ovarian = system: NCI/ADR-RES ovarian
OVCAR-3 ovarian = system: OVCAR-3 ovarian

Row | SMILES | TGI (DU-145 prostate) | TGI (CAKI-1 renal) | TGI (MOLT-4 leukemia) | TGI (HT29 colon) | TGI (EKVX NSCLC) | TGI (MALME-3M melanoma) | TGI (786-0 renal) | TGI (A549 NSCLC) | TGI (NCI/ADR-RES ovarian) | TGI (OVCAR-3 ovarian) | GI50 (DU-145 prostate) | GI50 (CAKI-1 renal) | GI50 (HT29 colon) | GI50 (EKVX NSCLC) | GI50 (MALME-3M melanoma) | GI50 (A549 NSCLC) | GI50 (NCI/ADR-RES ovarian) | GI50 (OVCAR-3 ovarian)
1 | NC1(c2cc3ccccc3s2)CCCC1 | > 100 µM | > 100 µM | 47.3 µM | > 100 µM | > 100 µM | > 100 µM | > 100 µM | > 100 µM | > 100 µM | > 100 µM |  |  |  |  |  |  |  | 
2 | O=C(/C=C/c1ccc2c(c1)OCO2)c1ccc(O)cc1 | 30.1 µM | 28.7 µM |  | 29.8 µM | 30.3 µM | 28.6 µM | 3.01 µM | 50.7 µM | 3.52 µM | 28.9 µM |  |  |  |  |  |  |  | 
3 | S=C(N/N=C(/c1ccccc1)c1ccccn1)N(Cc1ccccn1)Cc1ccccn1 | 4.42 µM | 1.42 µM | 16.1 µM | 2.09 µM | 1.7 µM | 2.45 µM | 2.04 µM | 2.01 µM | 1.44 µM | 1.71 µM |  |  |  |  |  |  |  | 
4 | O=c1[nH]c(=S)[nH]c2c1C(c1ccc([N+](=O)[O-])cc1)c1c([nH]c(=S)[nH]c1=O)O2 | > 100 µM | > 100 µM | > 100 µM | > 100 µM | > 100 µM |  | > 100 µM | > 100 µM | > 100 µM | > 100 µM |  |  |  |  |  |  |  | 
5 | Nc1nccc(-c2c[nH]c3cc(Br)ccc23)n1 | > 100 µM | 35 µM | 61.8 µM | 44.7 µM | 9.15 µM | > 100 µM | 46.9 µM | 35.5 µM | > 100 µM | > 100 µM |  |  |  |  |  |  |  | 
6 | Cc1cc(Nc2ccc(S(=O)(=O)O)c3cc(S(=O)(=O)O)cc(S(=O)(=O)O)c23)c2ccccc2n1 | > 100 µM | > 100 µM | > 100 µM | > 100 µM | > 100 µM | > 100 µM | > 100 µM | > 100 µM | > 100 µM | > 100 µM |  |  |  |  |  |  |  | 
7 | Cc1ccccc1OC(C)C(=O)NN1C(=O)CSC1c1ccccc1 (stereo not drawn) | > 100 µM | > 100 µM | 25.3 µM | > 100 µM | > 100 µM | > 100 µM | > 100 µM | > 100 µM | > 100 µM | > 100 µM |  |  |  |  |  |  |  | 
8 | CC(=O)Nc1nc(NC(C)=O)c2[nH]c(CO)nc2n1 | > 100 µM | > 100 µM | > 100 µM | > 100 µM | > 100 µM | > 100 µM | > 100 µM | > 100 µM | > 100 µM | > 100 µM |  |  |  |  |  |  |  | 
9 | c1ccc2c(c1)Cn1c-2nc2ccccc21 | > 100 µM | > 100 µM | > 100 µM | > 100 µM | > 100 µM | > 100 µM | > 100 µM | > 100 µM | > 100 µM | > 100 µM |  |  |  |  |  |  |  | 
10 | COc1ccc2cc1Oc1ccc(cc1)C[C@H]1c3cc(c(OC)cc3CCN1C)Oc1c(O)c(OC)cc3c1[C@H](C2)N(C)CC3 |  | 3.55 µM | 26.4 µM | 55.2 µM | 8.53 µM | 52.5 µM |  | 75 µM | 77.1 µM | 46.8 µM |  |  |  |  |  |  |  | 
11 | Nc1ncnc2c1[nH]c(=O)n2-c1ccccc1 |  | > 100 µM | > 100 µM | > 100 µM | > 100 µM | > 100 µM | > 100 µM | > 100 µM | > 100 µM | > 100 µM |  |  |  |  |  |  |  | 
12 | COc1ccc(-c2[nH]c3c4c(nc5c(c24)C(=O)CC(C)(C)C5)CC(C)(C)C3)cc1 | > 100 µM | > 100 µM | 94 µM | > 100 µM | > 100 µM | > 100 µM | > 100 µM | > 100 µM | > 100 µM | > 100 µM |  |  |  |  |  |  |  | 
13 | O=C(OCc1ccccc1)N1CCNCCN(C(=O)OCc2ccccc2)CCNCC1 | > 100 µM | 55.1 µM | 50.4 µM | 42 µM | > 100 µM |  | 47.9 µM | > 100 µM | > 100 µM | > 100 µM |  |  |  |  |  |  |  | 
14 | COc1ccc(CN2C(=O)/C(=C\c3cc(OC)c(OC)c(OC)c3)c3ccccc32)cc1 | 6.98 µM | 20.3 µM |  | 3.79 µM | 55.1 µM | 3.3 µM |  | > 100 µM | > 100 µM | 3.22 µM | 2.32 µM | 2.63 µM | 1.68 µM | 2.99 µM | 0.562 µM | 2.51 µM | 2.97 µM | 1.62 µM
15 | CC(=O)Nn1c(=S)[nH]c2ccccc21 | > 100 µM | > 100 µM | > 100 µM | > 100 µM | > 100 µM | > 100 µM | > 100 µM | > 100 µM | > 100 µM |  |  |  |  |  |  |  |  | 
16 | O=C(C1OC1c1ccc(Br)cc1O)C12CC3CC(CC(C3)C1)C2 (stereo not drawn) | > 100 µM |  | 66.7 µM | > 100 µM | > 100 µM | 42.1 µM | 32.4 µM | > 100 µM | > 100 µM | 84.6 µM |  |  |  |  |  |  |  | 
